“And” between values parts separate entries of the source, which are not always exact repeats. Equal entries are not always repeated. “Also recorded” adds a separate entry of the source.
Experiments:
[1] = Photofrin concentration and PDT dose at pleural cavity sites measured by fluorescence with 4-channel PDT dose dosimeter during Photofrin-mediated pleural PDT; type: in vivo, human; conditions: for Mean Photofrin concentration: local tissue concentration per patient and pleural site, Photofrin 2 mg kg^−1 i.v. 24 h before PDT, mean ± SD of smoothed values
Protocol: The patients in this study were enrolled in a Phase II randomized clinical trial of Photofrin-mediated PDT for pleural mesothelioma treatment. Having given informed consent, they were administered Photofrin (Pinnacle Biologics, Chicago, IL, USA) at 2 mg kg^−1 of body weight as an intravenous infusion 24 h prior to intra-operative PDT. PDT was performed in the operating room, immediately following radical pleurectomy and debulking of tumor. PDT treatment was performed with 632 nm light provided by a KTP-pumped dye laser (model 630 XP, Laserscope, Inc., San Jose, CA, USA) to a total fluence of 60 J cm^−2. Light was delivered to the pleural cavity via an optical fiber inserted into modified endotracheal tube filled with 0.1% intralipid to produce an extended isotropic light source. The pleural cavity was filled with 0.01% intralipid solution during PDT treatment. As the intralipid solution became contaminated with blood as observed by the treating physician, it was repeatedly removed by suction pump and replaced with fresh solution to minimize light absorption by hemoglobin. The light source was circulated around in the lung cavity by the physician during the PDT. The instantaneous light fluence rate and the cumulative light dose were monitored continuously using 8 isotropic detectors (Medlight, Switzerland) sutured to 8 strategic locations within the pleural cavity wall. […] Each spectrometer has wavelength range of 200 nm-1050 nm and resolution of 0.42 nm using a diode array of 2048×1 elements and 14 μm×200 μm per element. The spectral resolution achieved was 0.47 nm. Isotropic detectors 9 to 12 were connected to the multichannel dosimetry system only. The dosimetry system records light fluence rate using photodiodes. Light fluence rate at surface is measured directly with an isotropic detector placed on the surface. The measured light fluence rate is not reflective of intra-tissue light fluence rate, which may be higher or lower than the value on the tissue surface depending on the tissue optical properties. Fluorescence collected by the fibers was collimated and passed through long pass filters (Semrock, Inc., Rochester, NY, USA) to block the treatment light before the transmitted fluorescence was recorded by the spectrometers, whereas no filtration was required for the treatment-light signal in the other arm of the bifurcated fibers. The front view and the schematic diagram of the system setup are shown in FIGS. 1A-B. There are 16 channels on the system enclosure as shown in FIG. 1A. Channels 9 to 16 (top row) are connected to the dosimetry system only whereas Channels 1 to 4 (bottom row) are connected to both the dosimetry system and the spectrometers. Channels 5 to 8 (bottom row) are currently not used. In this study, Channels 1 to 4 are used to measure fluence rate of the treatment light and Photofrin fluorescence concurrently, while Channel 9 to 12 are used to measure light fluence rate only.
Diffuse reflectance measurements were acquired before and after PDT treatment using a specially designed fiber optic-based contact probe comprising (e.g., or consisting of) one source fiber, coupled to an air-cooled quartz-tungsten-halogen (QTH) lamp (Avalight HAL-S, Avantes, Inc., Louisville, CO, USA), and 9 detection fibers spaced at distances from 1.4 to 8.7 mm from the source. Measurements were made with the probe in contact with the interior surface of the pleural cavity. The reflected light was collected by the detection fibers which are imaged via a spectrograph onto a CCD, to measure radially-resolved diffuse reflectance. Background signal was measured in the same tissue with the white light source turned off, and then subtracted from each measurement. Each tissue spectrum is divided by the spectrum obtained with the same light source and detector in an integrating sphere to account for the wavelength-dependence of the white light source power and CCD response. […]

[2] = as above; parameters: species or system human; conditions: in vivo, all measurement sites, 630 nm, 60 J cm^−2
[3] = test system: radiation-induced fibrosarcoma (RIF) tumors; conditions: larger tumors; cited from earlier work
[4] = 10 min mock treatment in liquid tissue-simulating phantom with moving light source; type: physicochemical; conditions: 3 mg kg^−1 Photofrin, 0-70 mW cm^−2
Protocol: Excitation light intensity varies vastly during PDT as the light source was constantly circulated around in the lung cavity by the physician. To test the performance of the PDT dosimetry system in measuring Photofrin fluorescence with varying excitation light intensities, a 10 min mock treatment was performed using liquid tissue-simulating phantom (μa=0.3 cm^−1 and μ′s=9.6 cm^−1) with known Photofrin concentration of 3 mg kg^−1 and a moving light source. The fluorescence spectra were measured at the surface of the phantom using isotropic detectors as described above. The treatment started with the treatment light wand positioned at a fixed distance above the phantom for 1 min. The average fluence rate measured on the surface was 50 mW cm^−2. Then the light wand was moved randomly over the top of the phantom to simulate the variations in the light fluence rate due to the movement of treatment light source in the pleural cavity during PDT treatment. […] The Photofrin concentrations obtained from measured Photofrin fluorescence spectra using data analysis method described above are plotted as a function of treatment time as shown in FIG. 4B. Each data point represents Photofrin concentration obtained from one fluorescence spectrum and the solid lines represent the average Photofrin concentration calculated for every 1 min of data. […]

[5] = 22 sites, 8 patients, 2 mg kg^−1

With Photofrin the “mean of the local Photofrin concentrations measured from all sites” value [1, 5] was 3.94±2.01 mg kg 1, the “median of the local Photofrin concentrations measured from all sites” value [1, 5] was 3.37 ± 2.01 mg/kg and the “Mean Photofrin concentration” value ([1]; pleural site ACW) was 2.80 ± 0.27 mg/kg and 9.38 ± 0.57 mg/kg. The “Mean Photofrin concentration” value ([1]; pleural site AS) was 3.22 ± 0.35 mg/kg, the “Mean Photofrin concentration” value ([1]; pleural site Apex) was 4.71 ± 0.15 mg/kg and 3.12 ± 0.35 mg/kg and 1.13 ± 0.02 mg/kg and 3.27 ± 0.71 mg/kg and 7.19 ± 0.92 mg/kg and 4.56 ± 0.45 mg/kg and the “Mean Photofrin concentration” value ([1]; pleural site PCW) was 3.47 ± 0.42 mg/kg and 1.47 ± 0.20 mg/kg and 1.58 ± 0.21 mg/kg and 5.23 ± 0.47 mg/kg and 2.32 ± 0.23 mg/kg. For the same substance, the “Mean Photofrin concentration” value ([1]; pleural site PM) was 5.65 ± 0.67 mg/kg and 3.62 ± 0.61 mg/kg and 6.81 ± 0.35 mg/kg, the “Mean Photofrin concentration” value ([1]; pleural site PS) was 2.94 ± 0.12 mg/kg and 3.01 ± 0.05 mg/kg and 5.73 ± 0.24 mg/kg and 3.54 ± 0.16 mg/kg and the “Mean Photofrin concentration” value ([1]; pleural site Peri) was 1.87 ± 0.31 mg/kg. The “difference of local sensitizer concentrations within the same patient” value ([1]; patient #020, same administered dose 2 mg kg^−1) was 2.9 times, the “difference of local sensitizer concentrations between patients” value ([1]; patients #016 and #018, same administered dose 2 mg kg^−1) was 8.3 times and the “photobleaching of Photofrin during PDT treatment” value [2] was “no significant photobleaching; also recorded: did not change significantly; also recorded: negligible photobleaching”. The “PDT dose threshold from previous study” value [3] was 1200 mM J/cm^2 and the “photobleaching of Photofrin during mock treatment” value [4] was “negligible photobleaching”.
